Assay in all cases: relative viability (nuclei count vs DMSO), 5 days (fraction); higher = more cells survive
Compound in test [1]: COc1ncc(-c2ccc3nccc(-c4ccnnc4)c3c2)cc1NS(=O)(=O)c1ccc(F)cc1F [Omipalisib] + NC(=O)Nc1cc(-c2cccc(F)c2)sc1C(=O)N[C@H]1CCCNC1 [AZD7762] (partner 0.2 µM)
An outline of the steps:
(§1)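 Lung cancer cell lines, seeded in 1536-well plates, were treated the following day by pin tool with a single drug or with five library-drug doses (not always all listed) in √10 steps on top of a fixed anchor-drug dose. Cells were fixed and nuclei stained in one step after 5 days, and nuclei were counted. Relative viability is the nuclei count for treated wells divided by that for vehicle wells, reported as medians of duplicate plates.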

Compound in test [2]: COc1ncc(-c2ccc3nccc(-c4ccnnc4)c3c2)cc1NS(=O)(=O)c1ccc(F)cc1F [Omipalisib] + CS(=O)(=O)N1CCN(Cc2cc3nc(-c4cccc5[nH]ncc45)nc(N4CCOCC4)c3s2)CC1 [Pictilisib] (partner 1 µM)
The gist of the method:
as §1

Compound in test [3]: COc1ncc(-c2ccc3nccc(-c4ccnnc4)c3c2)cc1NS(=O)(=O)c1ccc(F)cc1F [Omipalisib] + C[C@]1(O)C[C@@H](c2nc(-c3ccc4ccc(-c5ccccc5)nc4c3)c3c(N)nccn32)C1 [Linsitinib] (partner 1 µM)
The gist of the method: as §1

Compound in test [4]: COc1ncc(-c2ccc3nccc(-c4ccnnc4)c3c2)cc1NS(=O)(=O)c1ccc(F)cc1F [Omipalisib] + CS(=O)(=O)CCNCc1ccc(-c2ccc3ncnc(Nc4ccc(OCc5cccc(F)c5)c(Cl)c4)c3c2)o1 [Lapatinib] (partner 2 µM)
An outline of the steps:
as §1

Compound in test [5]: COc1ncc(-c2ccc3nccc(-c4ccnnc4)c3c2)cc1NS(=O)(=O)c1ccc(F)cc1F [Omipalisib] + O=C(c1cc(Cc2n[nH]c(=O)c3ccccc23)ccc1F)N1CCN(C(=O)C2CC2)CC1 [Olaparib] (partner 8 µM)
An outline of the steps: as §1

Compound in test [6]: COc1ncc(-c2ccc3nccc(-c4ccnnc4)c3c2)cc1NS(=O)(=O)c1ccc(F)cc1F [Omipalisib] + Cc1cc(Nc2cc(N3CCN(C)CC3)nc(Sc3ccc(NC(=O)C4CC4)cc3)n2)n[nH]1 [Tozasertib] (partner 0.1 µM)
An outline of the steps:
as §1

In the supplement of paper PMC10307832 one finds relative viability data, which are given here for eight cell lines.

As to EKVX, the relative viability is 0.638 in test [1] (first compound 0.0003 µM); 0.723 in test [1] (first compound 0.003 µM); 0.285 in test [1] (first compound 0.03 µM); 0.45 in test [2] (first compound 0.0003 µM); 0.434 in test [2] (first compound 0.003 µM); 0.393 in test [2] (first compound 0.03 µM). Also, the relative viability in test [3] (first compound 0.0003 µM) is 1.06; in test [3] (first compound 0.003 µM), 0.76; in test [3] (first compound 0.03 µM), 0.456; in test [4] (first compound 0.0003 µM), 0.198; in test [4] (first compound 0.003 µM) it was 0.17; in test [4] (first compound 0.03 µM), 0.131. Moreover, the relative viability in test [5] (first compound 0.0003 µM) stood at 0.912; in test [5] (first compound 0.003 µM), 0.734; in test [5] (first compound 0.03 µM), 0.39; in test [6] (first compound 0.0003 µM), 0.407; in test [6] (first compound 0.003 µM), 0.246; in test [6] (first compound 0.03 µM), 0.157.
Regarding NCI-H838, the relative viability in test [1] (first compound 0.0003 µM) was determined as 0.895; in test [1] (first compound 0.003 µM) it was 0.828; in test [1] (first compound 0.03 µM), 0.725; in test [2] (first compound 0.0003 µM), 0.422; in test [2] (first compound 0.003 µM) it was 0.393; in test [2] (first compound 0.03 µM), 0.313. Moreover, the relative viability in test [3] (first compound 0.0003 µM) was found to be 0.902; in test [3] (first compound 0.003 µM), 0.74; in test [3] (first compound 0.03 µM), 0.346; in test [4] (first compound 0.0003 µM), 0.942; in test [4] (first compound 0.003 µM) it was 0.683; in test [4] (first compound 0.03 µM) it was 0.31. Further, the relative viability in test [5] (first compound 0.0003 µM) stood at 0.745; in test [5] (first compound 0.003 µM), 0.564; in test [5] (first compound 0.03 µM) it was 0.302; in test [6] (first compound 0.0003 µM) it was 0.293; in test [6] (first compound 0.003 µM), 0.222; in test [6] (first compound 0.03 µM), 0.221.
As for LOU-NH91, the relative viability worked out at 0.772 in test [1] (first compound 0.0003 µM); 0.566 in test [1] (first compound 0.003 µM); 0.515 in test [1] (first compound 0.03 µM); 0.511 in test [2] (first compound 0.0003 µM); 0.487 in test [2] (first compound 0.003 µM); 0.441 in test [2] (first compound 0.03 µM). The relative viability in test [3] (first compound 0.0003 µM) worked out at 0.876; in test [3] (first compound 0.003 µM), 0.717; in test [3] (first compound 0.03 µM), 0.512; in test [4] (first compound 0.0003 µM), 0.708; in test [4] (first compound 0.003 µM) it was 0.53; in test [4] (first compound 0.03 µM) it was 0.511. Also, the relative viability came out at 0.909 in test [5] (first compound 0.0003 µM); 0.852 in test [5] (first compound 0.003 µM); 0.617 in test [5] (first compound 0.03 µM); 0.706 in test [6] (first compound 0.0003 µM); 0.621 in test [6] (first compound 0.003 µM); 0.441 in test [6] (first compound 0.03 µM).
As for NCI-H2347, the relative viability came to 0.843 in test [1] (first compound 0.0003 µM); 0.529 in test [1] (first compound 0.003 µM); 0.375 in test [1] (first compound 0.03 µM); 0.682 in test [2] (first compound 0.0003 µM); 0.612 in test [2] (first compound 0.003 µM); 0.449 in test [2] (first compound 0.03 µM). Besides, the relative viability came out at 0.892 in test [3] (first compound 0.0003 µM); 0.947 in test [3] (first compound 0.003 µM); 0.61 in test [3] (first compound 0.03 µM); 0.855 in test [4] (first compound 0.0003 µM); 0.902 in test [4] (first compound 0.003 µM); 0.81 in test [4] (first compound 0.03 µM). The relative viability in test [5] (first compound 0.0003 µM) amounted to 0.527; in test [5] (first compound 0.003 µM), 0.514; in test [5] (first compound 0.03 µM) it was 0.407; in test [6] (first compound 0.0003 µM), 0.66; in test [6] (first compound 0.003 µM) it was 0.378; in test [6] (first compound 0.03 µM) it was 0.211.
For NCI-H1915, the relative viability in test [1] (first compound 0.0003 µM) was 0.777; in test [1] (first compound 0.003 µM), 0.736; in test [1] (first compound 0.03 µM), 0.624; in test [2] (first compound 0.0003 µM), 1.03; in test [2] (first compound 0.003 µM), 0.866; in test [2] (first compound 0.03 µM) it was 0.862. The relative viability in test [3] (first compound 0.0003 µM) stood at 1.08; in test [3] (first compound 0.003 µM), 1.12; in test [3] (first compound 0.03 µM) it was 1.01; in test [4] (first compound 0.0003 µM), 0.957; in test [4] (first compound 0.003 µM), 0.945; in test [4] (first compound 0.03 µM), 1. For the same cell line, the relative viability in test [5] (first compound 0.0003 µM) was 0.288; in test [5] (first compound 0.003 µM), 0.267; in test [5] (first compound 0.03 µM) it was 0.244; in test [6] (first compound 0.0003 µM), 0.44; in test [6] (first compound 0.003 µM) it was 0.395; in test [6] (first compound 0.03 µM), 0.421.
NCI-H3122: the relative viability is 1.01 in test [1] (first compound 0.0003 µM); 0.613 in test [1] (first compound 0.003 µM); 0.432 in test [1] (first compound 0.03 µM); 0.538 in test [2] (first compound 0.0003 µM); 0.472 in test [2] (first compound 0.003 µM); 0.475 in test [2] (first compound 0.03 µM). The relative viability in test [3] (first compound 0.0003 µM) stood at 1.11; in test [3] (first compound 0.003 µM), 0.699; in test [3] (first compound 0.03 µM) it was 0.392; in test [4] (first compound 0.0003 µM), 1.03; in test [4] (first compound 0.003 µM), 1.05; in test [4] (first compound 0.03 µM), 0.786. Besides, the relative viability turned out to be 0.696 in test [5] (first compound 0.0003 µM); 0.585 in test [5] (first compound 0.003 µM); 0.356 in test [5] (first compound 0.03 µM); 0.348 in test [6] (first compound 0.0003 µM); 0.26 in test [6] (first compound 0.003 µM); 0.172 in test [6] (first compound 0.03 µM).
On to NCI-H2087, for which the relative viability came out at 1.29 in test [1] (first compound 0.0003 µM); 1.55 in test [1] (first compound 0.003 µM); 0.772 in test [1] (first compound 0.03 µM); 0.916 in test [2] (first compound 0.0003 µM); 0.692 in test [2] (first compound 0.003 µM); 0.739 in test [2] (first compound 0.03 µM). Besides, the relative viability in test [3] (first compound 0.0003 µM) was determined as 1.15; in test [3] (first compound 0.003 µM) it was 0.909; in test [3] (first compound 0.03 µM), 0.854; in test [4] (first compound 0.0003 µM), 1.34; in test [4] (first compound 0.003 µM), 0.955; in test [4] (first compound 0.03 µM), 0.747. For the same cell line, the relative viability turned out to be 0.602 in test [5] (first compound 0.0003 µM); 0.344 in test [5] (first compound 0.003 µM); 0.291 in test [5] (first compound 0.03 µM); 0.243 in test [6] (first compound 0.0003 µM); 0.224 in test [6] (first compound 0.003 µM); 0.126 in test [6] (first compound 0.03 µM).
For the cell line NCI-H322M, the relative viability is 0.54 in test [1] (first compound 0.0003 µM); 0.455 in test [1] (first compound 0.003 µM); 0.482 in test [1] (first compound 0.03 µM); 0.467 in test [2] (first compound 0.0003 µM); 0.577 in test [2] (first compound 0.003 µM); 0.313 in test [2] (first compound 0.03 µM). For the same cell line, the relative viability in test [3] (first compound 0.0003 µM) worked out at 0.971; in test [3] (first compound 0.003 µM), 0.72; in test [3] (first compound 0.03 µM), 0.506; in test [4] (first compound 0.0003 µM) it was 0.53; in test [4] (first compound 0.003 µM) it was 0.553; in test [4] (first compound 0.03 µM) it was 0.415. Moreover, the relative viability is 0.802 in test [5] (first compound 0.0003 µM); 0.815 in test [5] (first compound 0.003 µM); 0.515 in test [5] (first compound 0.03 µM); 0.467 in test [6] (first compound 0.0003 µM); 0.407 in test [6] (first compound 0.003 µM); 0.348 in test [6] (first compound 0.03 µM).
